Test results as given in the NIST ThermoML archive (doi:10.1021/je700546r).
Where “and” joins values, the source holds several entries; their conditions need not be identical. Identical values can stand only once. Numbers after ± are expanded uncertainties.

Experiments:
[1] = for Triple point temperature: Adiabatic calorimetry
[2] = molar heat capacity at constant pressure; settings: 100 kPa, Small (less than 1 g) adiabatic calorimetry
[3] = Molar enthalpy of transition or fusion; settings: Crystal 1; Adiabatic calorimetry

ON=C1CCCCC1 [cyclohexanone oxime]
vapor or sublimation pressure ([1]; 285.7 K, Crystal 2, Transpiration method): 0.00078 ± 6e-05 kPa
vapor or sublimation pressure ([1]; 288.11 K, Crystal 2, Knudsen effusion): 0.001028 ± 6.3e-05 kPa
vapor or sublimation pressure ([1]; 290 K, Crystal 2, Transpiration method): 0.00118 ± 9e-05 kPa
vapor or sublimation pressure ([1]; 292.6 K, Crystal 2, Transpiration method): 0.00157 ± 0.00012 kPa
vapor or sublimation pressure ([1]; 293.82 K, Crystal 2, Knudsen effusion): 0.00186 ± 0.00012 kPa
vapor or sublimation pressure ([1]; 293.87 K, Crystal 2, Knudsen effusion): 0.001759 ± 0.00012 kPa
vapor or sublimation pressure ([1]; 295.1 K, Crystal 2, Transpiration method): 0.00215 ± 0.00016 kPa
vapor or sublimation pressure ([1]; 298.1 K, Crystal 2, Transpiration method): 0.00275 ± 0.0002 kPa
vapor or sublimation pressure ([1]; 298.2 K, Crystal 2, Transpiration method): 0.00302 ± 0.00022 kPa and 0.00293 ± 0.00021 kPa
vapor or sublimation pressure ([1]; 298.77 K, Crystal 2, Knudsen effusion): 0.003118 ± 0.00019 kPa
vapor or sublimation pressure ([1]; 301.1 K, Crystal 2, Transpiration method): 0.00396 ± 0.00028 kPa
vapor or sublimation pressure ([1]; 302.9 K, Crystal 1, Transpiration method): 0.005 ± 0.00036 kPa
vapor or sublimation pressure ([1]; 303.73 K, Crystal 1, Knudsen effusion): 0.005234 ± 0.00032 kPa
vapor or sublimation pressure ([1]; 303.74 K, Crystal 1, Knudsen effusion): 0.005145 ± 0.00032 kPa
vapor or sublimation pressure ([1]; 305.4 K, Crystal 1, Transpiration method): 0.00626 ± 0.00045 kPa
vapor or sublimation pressure ([1]; 307.6 K, Crystal 1, Transpiration method): 0.00806 ± 0.00059 kPa
vapor or sublimation pressure ([1]; 308.7 K, Crystal 1, Knudsen effusion): 0.00837 ± 0.00051 kPa
vapor or sublimation pressure ([1]; 310.2 K, Crystal 1, Transpiration method): 0.01034 ± 0.00075 kPa
vapor or sublimation pressure ([1]; 313 K, Crystal 1, Transpiration method): 0.0136 ± 0.00097 kPa
vapor or sublimation pressure ([1]; 313.62 K, Crystal 1, Knudsen effusion): 0.01375 ± 0.00084 kPa
vapor or sublimation pressure ([1]; 315.3 K, Crystal 1, Transpiration method): 0.01601 ± 0.0012 kPa
vapor or sublimation pressure ([1]; 318 K, Crystal 1, Transpiration method): 0.02155 ± 0.0016 kPa
vapor or sublimation pressure ([1]; 320.3 K, Crystal 1, Transpiration method): 0.02671 ± 0.0019 kPa
vapor or sublimation pressure ([1]; 323.1 K, Crystal 1, Transpiration method): 0.03364 ± 0.0024 kPa
vapor or sublimation pressure ([1]; 323.32 K, Crystal 1, Knudsen effusion): 0.03373 ± 0.0022 kPa
vapor or sublimation pressure ([1]; 323.35 K, Crystal 1, Knudsen effusion): 0.03472 ± 0.0022 kPa
vapor or sublimation pressure ([1]; 325.4 K, Crystal 1, Transpiration method): 0.04273 ± 0.0031 kPa
vapor or sublimation pressure ([1]; 328 K, Crystal 1, Transpiration method): 0.05312 ± 0.0038 kPa
vapor or sublimation pressure ([1]; 330.4 K, Crystal 1, Transpiration method): 0.06593 ± 0.0047 kPa
vapor or sublimation pressure ([1]; 333.1 K, Crystal 1, Transpiration method): 0.08234 ± 0.0059 kPa
vapor or sublimation pressure ([1]; 338.2 K, Crystal 1, Transpiration method): 0.1232 ± 0.0087 kPa
vapor or sublimation pressure ([1]; 340.2 K, Crystal 1, Transpiration method): 0.1376 ± 0.0098 kPa
vapor or sublimation pressure ([1]; 343.3 K, Crystal 1, Transpiration method): 0.1758 ± 0.013 kPa
vapor or sublimation pressure ([1]; 345.6 K, Crystal 1, Transpiration method): 0.213 ± 0.015 kPa
vapor or sublimation pressure ([1]; 348.3 K, Crystal 1, Transpiration method): 0.2639 ± 0.019 kPa
vapor or sublimation pressure ([1]; 364.6 K, Liquid, Transpiration method): 0.8624 ± 0.06 kPa
vapor or sublimation pressure ([1]; 365.7 K, Liquid, Transpiration method): 0.8948 ± 0.063 kPa
vapor or sublimation pressure ([1]; 367.9 K, Liquid, Transpiration method): 1.03 ± 0.073 kPa
vapor or sublimation pressure ([1]; 369.7 K, Liquid, Transpiration method): 1.119 ± 0.079 kPa
vapor or sublimation pressure ([1]; 370.5 K, Liquid, Transpiration method): 1.181 ± 0.083 kPa
vapor or sublimation pressure ([1]; 373.6 K, Liquid, Transpiration method): 1.388 ± 0.098 kPa
vapor or sublimation pressure ([1]; 373.7 K, Liquid, Transpiration method): 1.405 ± 0.099 kPa
vapor or sublimation pressure ([1]; 376.6 K, Liquid, Transpiration method): 1.661 ± 0.12 kPa
vapor or sublimation pressure ([1]; 377.7 K, Liquid, Transpiration method): 1.759 ± 0.12 kPa
vapor or sublimation pressure ([1]; 377.8 K, Liquid, Transpiration method): 1.786 ± 0.13 kPa
vapor or sublimation pressure ([1]; 379.7 K, Liquid, Transpiration method): 1.922 ± 0.13 kPa
vapor or sublimation pressure ([1]; 381.8 K, Liquid, Transpiration method): 2.124 ± 0.15 kPa
vapor or sublimation pressure ([1]; 382.8 K, Liquid, Transpiration method): 2.221 ± 0.16 kPa
vapor or sublimation pressure ([1]; 385.8 K, Liquid, Transpiration method): 2.574 ± 0.18 kPa
vapor or sublimation pressure ([1]; 388.9 K, Liquid, Transpiration method): 3.046 ± 0.21 kPa
vapor or sublimation pressure ([1]; 391.9 K, Liquid, Transpiration method): 3.486 ± 0.24 kPa
vapor or sublimation pressure ([1]; 394.9 K, Liquid, Transpiration method): 3.978 ± 0.28 kPa
Triple point temperature ([1]; Crystal 1): 362.2 ± 0.09 K
Triple point temperature ([1]; Crystal 2): 301.5 ± 1 K
Triple point temperature ([1]; Crystal 3): 241.5 ± 1 K
molar heat capacity at constant pressure ([2]; 5 K, Crystal 3): 0.3674 ± 0.023 J/K/mol
molar heat capacity at constant pressure ([2]; 10 K, Crystal 3): 2.982 ± 0.058 J/K/mol
molar heat capacity at constant pressure ([2]; 15 K, Crystal 3): 7.554 ± 0.12 J/K/mol
molar heat capacity at constant pressure ([2]; 20 K, Crystal 3): 12.9 ± 0.14 J/K/mol
molar heat capacity at constant pressure ([2]; 25 K, Crystal 3): 18.36 ± 0.16 J/K/mol
molar heat capacity at constant pressure ([2]; 30 K, Crystal 3): 23.53 ± 0.18 J/K/mol
molar heat capacity at constant pressure ([2]; 35 K, Crystal 3): 28.21 ± 0.2 J/K/mol
molar heat capacity at constant pressure ([2]; 40 K, Crystal 3): 32.42 ± 0.23 J/K/mol
molar heat capacity at constant pressure ([2]; 45 K, Crystal 3): 36.26 ± 0.25 J/K/mol
molar heat capacity at constant pressure ([2]; 50 K, Crystal 3): 39.78 ± 0.27 J/K/mol
molar heat capacity at constant pressure ([2]; 60 K, Crystal 3): 45.91 ± 0.29 J/K/mol
molar heat capacity at constant pressure ([2]; 70 K, Crystal 3): 51.28 ± 0.33 J/K/mol
molar heat capacity at constant pressure ([2]; 80 K, Crystal 3): 56.24 ± 0.35 J/K/mol
molar heat capacity at constant pressure ([2]; 90 K, Crystal 3): 60.87 ± 0.4 J/K/mol
molar heat capacity at constant pressure ([2]; 100 K, Crystal 3): 65.47 ± 0.42 J/K/mol
molar heat capacity at constant pressure ([2]; 110 K, Crystal 3): 69.94 ± 0.44 J/K/mol
molar heat capacity at constant pressure ([2]; 120 K, Crystal 3): 74.33 ± 0.46 J/K/mol
molar heat capacity at constant pressure ([2]; 130 K, Crystal 3): 78.7 ± 0.48 J/K/mol
molar heat capacity at constant pressure ([2]; 140 K, Crystal 3): 83.1 ± 0.5 J/K/mol
molar heat capacity at constant pressure ([2]; 150 K, Crystal 3): 87.59 ± 0.52 J/K/mol
molar heat capacity at constant pressure ([2]; 160 K, Crystal 3): 92.16 ± 0.55 J/K/mol
molar heat capacity at constant pressure ([2]; 170 K, Crystal 3): 96.94 ± 0.57 J/K/mol
molar heat capacity at constant pressure ([2]; 180 K, Crystal 3): 102.1 ± 0.6 J/K/mol
molar heat capacity at constant pressure ([2]; 190 K, Crystal 3): 107.7 ± 0.6 J/K/mol
molar heat capacity at constant pressure ([2]; 200 K, Crystal 3): 113.9 ± 0.7 J/K/mol
molar heat capacity at constant pressure ([2]; 210 K, Crystal 3): 122.3 ± 0.7 J/K/mol
molar heat capacity at constant pressure ([2]; 220 K, Crystal 3): 132.6 ± 0.7 J/K/mol
molar heat capacity at constant pressure ([2]; 230 K, Crystal 3): 141.9 ± 0.8 J/K/mol
molar heat capacity at constant pressure ([2]; 240 K, Crystal 3): 150.7 ± 0.8 J/K/mol
molar heat capacity at constant pressure ([2]; 250 K, Crystal 2): 153.4 ± 0.8 J/K/mol
molar heat capacity at constant pressure ([2]; 260 K, Crystal 2): 163.4 ± 0.9 J/K/mol
molar heat capacity at constant pressure ([2]; 270 K, Crystal 2): 174.5 ± 0.9 J/K/mol
molar heat capacity at constant pressure ([2]; 280 K, Crystal 2): 184.4 ± 1 J/K/mol
molar heat capacity at constant pressure ([2]; 290 K, Crystal 2): 191.9 ± 1 J/K/mol
molar heat capacity at constant pressure ([2]; 298.15 K, Crystal 2): 196.2 ± 1.1 J/K/mol
molar heat capacity at constant pressure ([2]; 300 K, Crystal 2): 197.1 ± 1.1 J/K/mol
molar heat capacity at constant pressure ([2]; 310 K, Crystal 1): 192.8 ± 1 J/K/mol
molar heat capacity at constant pressure ([2]; 320 K, Crystal 1): 197.5 ± 1.1 J/K/mol
molar heat capacity at constant pressure ([2]; 330 K, Crystal 1): 203 ± 1.1 J/K/mol
molar heat capacity at constant pressure ([2]; 340 K, Crystal 1): 209 ± 1.1 J/K/mol
molar heat capacity at constant pressure ([2]; 350 K, Crystal 1): 215.2 ± 1.1 J/K/mol
molar heat capacity at constant pressure ([2]; 360 K, Crystal 1): 221.1 ± 1.2 J/K/mol
molar heat capacity at constant pressure ([2]; 362.2 K, Crystal 1): 222.4 ± 1.2 J/K/mol
molar heat capacity at constant pressure ([2]; 362.2 K, Liquid): 271.5 ± 1.4 J/K/mol
molar heat capacity at constant pressure ([2]; 365 K, Liquid): 273.1 ± 1.4 J/K/mol
molar heat capacity at constant pressure ([2]; 370 K, Liquid): 276 ± 1.4 J/K/mol
Molar enthalpy of transition or fusion [3]: 12.45 ± 0.019 kJ/mol
